What was measured:
schizophrenia subjects = assay: Sensory electrophysiological responses (P50 gating, MMN, P300, N100) in schizophrenia subjects; assay type: in vivo, human; details: in combination with a tobacco-free nicotine dosage form, greater than compound alone, expected at a daily dose as low as 0.3 mg
Protocol: These effects are expected at a daily dose as low as 0.3 mg of (R)-7-chloro-N-(quinuclidin-3-yl)benzo[b]thiophene-2-carboxamide hydrochloride.
Impairment of the ability of central nervous system to inhibit irrelevant sensory information has long been used as a model for understanding the deficits of attention seen in schizophrenic subjects. Two approaches to the measurement of this ability have commonly been employed (see (Heinrichs, 2004; Potter et al., 2006; Turetsky et al., 2007; Umbricht and Krljes, 2005) for reviews and meta-analyses): (1) the sensory gating paradigm in which the presentation of one stimulus normally suppresses the response elicited by a stimulus which rapidly follows it. […] (2) the oddball or orienting paradigm in which a rare or unexpected event elicits a diminished response in schizophrenic subjects because attentional resources are inappropriately focused on less salient aspects of the environment.
Two responses are commonly used assess brain activity: (1) the auditory P50 response elicited by the second member of a pair of clicks; and (2) the mismatch negativity (MMN) or N2 response evoked by a rarely occurring pure tone of no instructed relevance to the subject. Abnormalities in both P50 gating and the MMN have been reported in schizophrenic subjects. […]

humans = assay: Procognitive effects in humans at low doses; assay type: in vivo, human; details: unexpectedly low doses
Text: Thus, (R)-7-chloro-N-(quinuclidin-3-yl)benzo[b]thiophene-2-carboxamide and pharmaceutically acceptable salts thereof can be used at unexpectedly low doses improve cognition in individuals suffering from impaired cognition and in healthy individuals (i.e., individuals that are not suffering from an apparent cognitive deficit). For example, it can be used to improve cognition in subjects suffering from Alzheimer's disease, schizophrenia and other disorders such as other neurodegenerative diseases (e.g., Huntington's Disease or Parkinson's Disease) and attention deficit disorder. It can be used to treat certain disorders, e.g., Alzheimer's disease, schizophrenia (e.g., paranoid type, disorganized type, catatonic type, and undifferentiated type), schizophreniform disorder, schizoaffective disorder, delusional disorder, positive symptoms of schizophrenia, negative symptoms of schizophrenia at a daily dose of 3 mg, 2.70 mg, 2.50 mg, 2.25 mg, 2 mg, 1.75 mg, 1.50 mg, 1.25 mg, 1 mg, 0.7, 0.5, 0.3 mg or even 0.1 mg. The compound can be used to improve one or more aspects of cognition, e.g., one or more of: executive function, memory (e.g., working memory), social cognition, visual learning, verbal learning and speed of processing. […]

[1] = Memory improvement at a subclinical dose in combination with an acetylcholinesterase inhibitor; assay type: in vivo; details: in combination with an acetylcholinesterase inhibitor also at a subclinical dose
Protocol: Thus, a subject can experience a benefit (e.g., improved memory or cognition) from a combination of drugs each of which is administered at very low, side-effect reducing or side-effect avoiding dose. Moreover, the combination of drugs may provide a benefit for a wider range or subjects and/or over a longer period of treatment.

| Structure (SMILES) | sensory electrophysiological responses which correlate with improved cognitive and functional performance (schizophrenia subjects) | procognitive effects (humans) | memory [1] |
| --- | --- | --- | --- |
| Cl.O=C(N[C@H]1CN2CCC1CC2)c1cc2cccc(Cl)c2s1 [(R)-7-chloro-N-(quinuclidin-3-yl)benzo[b]thiophene-2-carboxamide hydrochloride] | can improve sensory electrophysiological responses | – | – |
| O=C(N[C@H]1CN2CCC1CC2)c1cc2cccc(Cl)c2s1 [(R)-7-chloro-N-(quinuclidin-3-yl)benzo[b]thiophene-2-carboxamide] | – | can have procognitive effects in humans at unexpectedly low doses | memory can be improved |

From patent publication US20140155429A1, “Treatment of Cognitive Disorders with Certain Alpha-7 Nicotinic Acid Receptor Agonists in Combination with Nicotine” (EnVivo Pharmaceuticals, Inc., priority 2011, published 2014)
